Data from patent US20150320704A1, “COMPOSITIONS AND METHODS FOR TREATMENT OF HAIR LOSS” (DS Healthcare Group, Inc., priority 2014, published 2015).

Legend:
balding macaques = conditions: topical application, 20-week treatment period; cited from earlier work
[1] = tested on: male subjects experiencing active thinning-hair; assay: Hair regrowth study, double blind, daily topical application for 90 days; type: in vivo, human
Description: A double blind study was performed on male subjects between the ages of 25 and 55 years who had been experiencing active thinning-hair. […] A global photograph of each subject was taken from the crown area and a second photograph was taken of the top of the head to track frontal areas. […] In addition to the pimarene compounds, the formulations contained pine resin compounds that are not calcium channel opening agents, including abietic acid, neoabietic acid, dehydroabietic acid, and palustric acid. The target sites of each subject were monitored over the 90 day period and photographs were again obtained at the end of this period and compared to those at baseline.
The formulation lacks a pine resin compound other than a pimarene compound.

humans = conditions: cited from earlier work
[2] = Example 3: study of Example 1 repeated, formulation of vehicle and a potassium channel opening agent other than pimarene compounds
[3] = Example 2: study of Example 1 repeated, formulation of vehicle and one pimarene compound, lacking other pine resin compounds

CNC(=S)[C@]1(c2cccnc2)CCCC[S+]1[O-] (some centres unmarked) [RP-49,356]
scalp hair growth (balding macaques): not effective in promoting hair growth

CC(C(O)c1ccc(O)cc1)N1CCC(Cc2ccccc2)CC1 (centres unmarked) [ifenprodil]
hair thickness and growth, outcome of treatment [1, 2]: improvement in hair thickness and growth in a majority of the subjects

CCC(C)(C)N=C(NC#N)Nc1cccnc1 [P-1075]
scalp hair growth (balding macaques): stimulated hair growth

CC(N/C(=N\C#N)Nc1ccncc1)C(C)(C)C (centres unmarked) [pinacidil]
hypertrichosis (humans): cause hypertrichosis

C=C[C@]1(C)C=C2CC[C@@H]3[C@](C)(CCC[C@@]3(C)C(=O)O)[C@H]2CC1 [sandaracopimaric acid]
hair thickness and growth, outcome of treatment [1, 3]: improvement in hair thickness and growth in a majority of the subjects

COc1ccc(Cl)cc1[C@]1(F)C(=O)Nc2cc(C(F)(F)F)ccc21 [BIAS-204352]
hair thickness and growth, outcome of treatment [1, 2]: improvement in hair thickness and growth in a majority of the subjects

CC[C@@]1(C)CC[C@H]2C(=CCC3[C@]2(C)CCC[C@]3(C)C(=O)O)C1 (some centres unmarked) [dihydroisopimaric acid]
hair thickness and growth, outcome of treatment [1, 3]: improvement in hair thickness and growth in a majority of the subjects

CC[C@@]1(C)CC[C@H]2C(=CC[C@H]3[C@](C)(CO)CCC[C@]23C)C1 [dihydroisopimarinol]
hair thickness and growth, outcome of treatment [1, 3]: improvement in hair thickness and growth in a majority of the subjects

FC(F)(F)C(Cl)Br (centres unmarked) [halothane]
hair thickness and growth, outcome of treatment [1, 2]: improvement in hair thickness and growth in a majority of the subjects

CC1(C)Oc2ccc(C#N)cc2C(N2CCCC2=O)C1O (centres unmarked) [cromakalin]
scalp hair growth (balding macaques): stimulated hair growth

CC1=NS(=O)(=O)c2cc(Cl)ccc2N1 [diazoxide]
hypertrichosis (humans): cause hypertrichosis

C=C[C@@]1(C)CC[C@H]2C(=CC[C@@H]3[C@]2(C)CCC[C@@]3(C)C(=O)O)C1 [isopimaric acid]
hair thickness and growth, outcome of treatment [1, 3]: improvement in hair thickness and growth in a majority of the subjects

C=C[C@@]1(C)C=C2CC[C@@H]3[C@](C)(CCC[C@@]3(C)C(=O)O)[C@H]2CC1 [pimaric acid]
hair thickness and growth, outcome of treatment [1, 3]: improvement in hair thickness and growth in a majority of the subjects

dihydropimaric acid
hair thickness and growth, outcome of treatment [1, 3]: improvement in hair thickness and growth in a majority of the subjects
